Data on 14 compounds can be found in patent publication US12139470B2, “Trioxolane agents” (The Regents of the University of California, priority 2017, dated 2024).

Values after ≈ are worked out from the molar mass of the structure shown. Read-outs that look alike come from different tables or passages of the source.

The subject of data set [1] is Plasmodium berghei. Kind of data set: Plasmodium berghei mouse malaria model (Peters test, cures at 30 days). Type of data set: in vivo. The note with it: po, 720 h; for responders at 4 mg/kg: Table 6, 4 mg/kg. The text has this:
The suppressive 4-day “Peters test” ^27 involving P. berghei infected mice provides a convenient and cost effective means to assess the overall in vivo performance of pre-clinical antimalarials. […] Mice were followed for 30 days and judged to have been cured of the infection based on the lack of detectable parasitemia at the end of the study.
Female Swiss Webster Mice (average of 20 g body weight) were infected intraperitoneally with 10^6 Plasmodium berghei-infected erythrocytes collected from a previously infected mouse. […] There were five mice in each test arm. Infections were monitored by daily microscopic evaluation of Giemsa-stained blood smears starting on day seven. Parasitemia were determined by counting the number of infected and uninfected erythrocytes. Body weight was measured over the course of the treatment. […] Animal survival and morbidity were closely monitored for up to 30 days post-infection when the experiment was terminated. In some cases survival is expressed as a PD100 or PD50, the dose that produces respectively 100% or 50% cures in treated animals at 30 days post infection.

Data set [2] in a line: Kinetic solubility in PBS. The class given is physicochemical. The note with it: kinetic solubility in PBS (pH = 7.4), final DMSO 5%, average of three determinations.
A short description of data set [3]: Mouse liver microsome assay (half-life, intrinsic clearance). The note with it: for T1/2: half-life when incubated with mouse liver microsomes. The text has this:
A second hypothesis regarding trans-R^A substitution (R^A in Scheme 1) was that the resulting de-symmetrized molecular topology would impact the vivo PK/PD properties of these analogs. […] To explore possible metabolic differences, we evaluated selected analogs with mouse liver microsomes and derived intrinsic clearance (CLint) values (Table 1).
A general note: Liver microsomes are vesicles of endoplasmic reticulum, rich in cytochrome P450 enzymes.

Data set [4] relates to Plasmodium berghei. Nature of the data set: Plasmodium berghei mouse malaria model (Peters test, cures at 30 days). The class given is in vivo. The note with it: po, 720 h, oral gavage, read-out: Mice Cured (%).
For data set [5], the system named is Plasmodium falciparum: strain W2. Nature of the data set: Plasmodium falciparum growth inhibition assay (EC50 determinations). The note with it: W2 strain of P. falciparum. Type of data set: cell-based.
Method: The growth inhibition assay for P. falciparum was conducted as described previously^29 with minor modifications. […] Following 48 hours of incubation, the cells were fixed by adding 0.1 ml of 2% formaldehyde in phosphate buffered saline, pH=7.4 (PBS). […] Parasitemias were determined from dot plots (forward scatter vs. fluorescence) using [sequence] software (Becton Dickinson). EC50 values for growth inhibition were determined from plots of percentage control parasitemia over inhibitor concentration using GraphPad Prism software.
The test system of the next data set is PC3 tumor. Nature of the data set: Biodistribution of 18F probes in PC3 tumor-bearing mice. Type of data set: in vivo, mouse. The protocol: FIG. 6. B9[^18F] biodistribution in PC3-bearing mice. An intravenous injection of 300 μCi was given at the tail vein of each mouse. At 30, 60 and 90 minutes post-injection, mice were sacrificed and their organs collected. […] FIG. 7. B9[^18F] biodistribution in PC3-bearing mice. An intravenous injection of 300 μCi was given at the tail vein of mice containing either a subcutaneous PC3 tumor or a renal capsule PC3 tumor. At 60 minutes post-injection, mice were sacrificed and their organs collected. […] FIG. 8. B20[^18F] biodistribution in PC3 tumor-bearing nude mice: An intravenous injection of 300 μCi was given at the tail vein of each mouse. At 60 and 90 minutes post-injection, mice were sacrificed and their organs collected. The radioactivity in the tumor appears to be stable at about 0.3% id/gram.

Where [6] appears, read: Table 4, 4 mg/kg/day, once a day for four days, oral gavage, read-out: Mice Cured (%).
Where [7] appears, read: Table 4, 6 mg/kg/day, once a day for four days, oral gavage, read-out: Mice Cured (%).

Consider `c1cc([C@H]2CC[C@]3(CC2)OO[C@]2(O3)C3CC4CC(C3)CC2C4)ccc1OCCN1CCOCC1` [3Z (artefenomel)], for which the responders at 40 mg/kg in the data set on Plasmodium berghei [1] (read-out: Mice Cured (%), Table 7, 40 mg/kg, 1 dose, oral gavage) turned out to be 100%. The responders at 80 mg/kg in the data set with Plasmodium berghei [1] (read-out: Mice Cured (%), Table 7, 80 mg/kg, 1 dose, oral gavage) was 100%.

In general, Solubility refers to the concentration that dissolves in the medium under given conditions. High values mean a readily soluble substance, low ones a poorly soluble substance. As to `CC(C)(N)CNC(=O)C[C@@H]1CCC[C@]2(C1)OOC1(O2)C2CC3CC(C2)CC1C3` (stereo partly drawn) [12a, N-(2-Amino-2-methylpropyl)-2-((R,R)-dispiro[adamantane-2,3′-[1,2,4]trioxolane-5′,1″-cyclohexan]-3″-yl)acetamide], in data set [2], the “Solubility” value was 429 µM (≈ 168 µg/mL). In addition, the “T1/2” value in data set [3] is 169 min. In addition, the CLint in data set [3] (mouse, microsomes) is on record as 4.1 μL/min/mg of protein. Also, in data set [3] (mouse, microsomes), the “T1/2 (min) No NADPH” value was “stable”. Besides, in the data set with Plasmodium berghei [1] (Table 2, free base, 9.5 mg/kg/day, once a day for four days, oral gavage, no parasitemia at 30 days, read-out: Mice Cured (%)), the responders at 9.5 mg/kg/day came to 100%. Besides, the responders at 13.6 mg/kg/day in the data set on Plasmodium berghei [1] (Table 2, tosylate salt, 13.6 mg/kg/day, once a day for four days, oral gavage, no parasitemia at 30 days, read-out: Mice Cured (%)) was 100%. In addition, the responders at 1 mg/kg/day in the data set on Plasmodium berghei [1] (Table 3, free base, 1 mg/kg/day, four daily doses, oral gavage, read-out: Mice Cured (%)) was determined as 0%. The responders at 4 mg/kg/day was determined as 0% in the data set on Plasmodium berghei [1] (Table 3, free base, 4 mg/kg/day, four daily doses, oral gavage, read-out: Mice Cured (%)) and 60% in the data set with Plasmodium berghei [1] (setting [6]). Besides, the responders at 6 mg/kg/day was 60% in the data set on Plasmodium berghei [1] (Table 3, free base, 6 mg/kg/day, four daily doses, oral gavage, read-out: Mice Cured (%)) and 100% in the data set on Plasmodium berghei [1] (setting [7]). Also, the responders at 10 mg/kg/day with Plasmodium berghei [1] (Table 3, free base, 10 mg/kg/day, four daily doses, oral gavage, read-out: Mice Cured (%)) turned out to be 100%.

`NC(=O)CNC(=O)C[C@@H]1CCC[C@]2(C1)OOC1(O2)C2CC3CC(C2)CC1C3` (stereo partly drawn) [12b, N-(2-Amino-2-oxoethyl)-2-((R,R)-dispiro[adamantane-2,3′-[1,2,4]trioxolane-5′,1″-cyclohexan]-3″-yl)acetamide]: in data set [3], the “T1/2” value is given as 37.3 min. Besides, in data set [3] (mouse, microsomes), the CLint is 18.6 μL/min/mg of protein and the “T1/2 (min) No NADPH” value was “stable”.

Turning to `NCCNC(=O)C[C@@H]1CCC[C@]2(C1)OOC1(O2)C2CC3CC(C2)CC1C3` (stereo partly drawn) [12c, N-(2-Aminoethyl)-2-((R,R)-dispiro[adamantane-2,3′-[1,2,4]trioxolane-5′,1″-cyclohexan]-3″-yl)acetamide], the “T1/2” value in data set [3] was found to be 84.5 min. Also, in data set [3] (mouse liver microsomes, no NADPH), the “T1/2 (min) No NADPH” value came to 136 min. In data set [3] (mouse, microsomes), the CLint was 8.2 μL/min/mg of protein. The responders at 4 mg/kg/day stood at 100% in the data set with Plasmodium berghei [1] (setting [6]) and 100% in the data set with Plasmodium berghei [1] (Table 5, 4 mg/kg/day, once a day for four days, oral gavage, read-out: Mice Cured (%)). Further, the responders at 6 mg/kg/day in the data set on Plasmodium berghei [1] (setting [7]) turned out to be 100%. In the data set on Plasmodium berghei [1] (Table 5, 0.5 mg/kg/day, once a day for four days, oral gavage, read-out: Mice Cured (%)), the responders at 0.5 mg/kg/day was determined as 0%. The responders at 1 mg/kg/day in the data set on Plasmodium berghei [1] (Table 5, 1 mg/kg/day, once a day for four days, oral gavage, read-out: Mice Cured (%)) came out at 0%. In addition, the responders at 2 mg/kg/day with Plasmodium berghei [1] (Table 5, 2 mg/kg/day, once a day for four days, oral gavage, read-out: Mice Cured (%)) came out at 0%. Further, the responders at 4 mg/kg with Plasmodium berghei [1] (1 dose, oral gavage, read-out: Mice Cured (%)) is 0%; in the data set on Plasmodium berghei [1] (2 daily doses, oral gavage, read-out: Mice Cured (%)), 0%; with Plasmodium berghei [1] (4 daily doses, oral gavage, read-out: Mice Cured (%)), 100%; with Plasmodium berghei [4] (Table 6, 4 mg/kg, 3 daily doses) it was 20%. For the same compound, the responders at 40 mg/kg was found to be 100% in the data set on Plasmodium berghei [1] (Table 7, 40 mg/kg, 2 doses, oral gavage, read-out: Mice Cured (%)) and 0% with Plasmodium berghei [4] (Table 7, 40 mg/kg, 1 dose). The responders at 80 mg/kg in the data set on Plasmodium berghei [4] (Table 7, 80 mg/kg, 1 dose) came out at 20%.

For the compound `CC(C)(CN)CNC(=O)C[C@@H]1CCC[C@]2(C1)OOC1(O2)C2CC3CC(C2)CC1C3` (stereo partly drawn) [12d, N-(3-Amino-2,2-dimethylpropyl)-2-((R,R)-dispiro[adamantane-2,3′-[1,2,4]trioxolane-5′,1″-cyclohexan]-3″-yl)acetamide], the “T1/2” value in data set [3] is reported as 64.2 min. Also, in data set [3] (mouse, microsomes), the CLint was 10.8 μL/min/mg of protein and the “T1/2 (min) No NADPH” value is given as “stable”. The responders at 4 mg/kg/day with Plasmodium berghei [1] (setting [6]) worked out at 0%. In addition, in the data set on Plasmodium berghei [1] (setting [7]), the responders at 6 mg/kg/day amounted to 0%.

As for `O=C(C[C@@H]1CCC[C@]2(C1)OOC1(O2)C2CC3CC(C2)CC1C3)N1CCOCC1` (stereo partly drawn) [12f, 2-((R,R)-Dispiro[adamantane-2,3′-[1,2,4]trioxolane-5′,1″-cyclohexan]-3″-yl)-1-morpholinoethan-1-one], in data set [5], the “potency of 12f relative to regioisomer 2f” value was “three-fold more potent than 2f”. Also, the responders at 4 mg/kg/day with Plasmodium berghei [1] (setting [6]) came out at 0%. For the same compound, the responders at 6 mg/kg/day in the data set with Plasmodium berghei [1] (setting [7]) stood at 0%.

For `O=C(C[C@@H]1CCC[C@]2(C1)OOC1(O2)C2CC3CC(C2)CC1C3)N1CCNCC1` (stereo partly drawn) [12g, 2-((R,R)-Dispiro[adamantane-2,3′-[1,2,4]trioxolane-5′,1″-cyclohexan]-3″-yl)-1-(piperazin-1-yl)ethan-1-one], the “T1/2” value in data set [3] was 25.5 min. In data set [3] (mouse, microsomes), the CLint was 27.2 μL/min/mg of protein and the “T1/2 (min) No NADPH” value was “stable”. Further, the responders at 4 mg/kg/day in the data set with Plasmodium berghei [1] (setting [6]) was determined as 0%. Besides, the responders at 6 mg/kg/day with Plasmodium berghei [1] (setting [7]) worked out at 20%.

Regarding `CN1CCN(C(=O)C[C@@H]2CCC[C@]3(C2)OOC2(O3)C3CC4CC(C3)CC2C4)CC1` (stereo partly drawn) [12h, 2-((R,R)-Dispiro[adamantane-2,3′-[1,2,4]trioxolane-5′,1″-cyclohexan]-3″-yl)-1-(4-methylpiperazin-1-yl)ethan-1-one], the responders at 4 mg/kg/day in the data set with Plasmodium berghei [1] (setting [6]) is 0%. In addition, the responders at 6 mg/kg/day in the data set with Plasmodium berghei [1] (setting [7]) turned out to be 0%.

With `NC1CCN(C(=O)C[C@@H]2CCC[C@]3(C2)OOC2(O3)C3CC4CC(C3)CC2C4)CC1` (stereo partly drawn) [12i, 1-(4-Aminopiperidin-1-yl)-2-((R,R)-dispiro[adamantane-2,3′-[1,2,4]trioxolane-5′,1″-cyclohexan]-3″-yl)ethan-1-one], the “T1/2” value in data set [3] turned out to be 84.5 min. In data set [3] (mouse, microsomes), the CLint is 8.2 μL/min/mg of protein and the “T1/2 (min) No NADPH” value is “stable”.

As to `N[C@H]1CC[C@H](NC(=O)C[C@@H]2CCC[C@]3(C2)OOC2(O3)C3CC4CC(C3)CC2C4)CC1` (stereo partly drawn) [12j, N-((trans)-4-Aminocyclohexyl)-2-((R,R)-dispiro[adamantane-2,3′-[1,2,4]trioxolane-5′,1″-cyclohexan]-3″-yl)acetamide], in the data set with Plasmodium berghei [1] (setting [6]), the responders at 4 mg/kg/day was 60%. Besides, in the data set on Plasmodium berghei [1] (setting [7]), the responders at 6 mg/kg/day was found to be 100%.

As to `O=C(NCCCNC(=O)C12CC3CC(C1)[C@]1(OO[C@]4(CC[C@@H](c5ccc(OCCN6CCOCC6)cc5)CC4)O1)C(C3)C2)c1ccc(F)cc1` [B9[^18F], N-(3-(4-[^18F]fluorobenzamido)propyl)-4″-(4-(2-morpholinoethoxy)phenyl)dispiro[adamantane-2,3′-[1,2,4]trioxolane-5′,1″-cyclohexane]-5-carboxamide], in the data set with PC3 tumor (300 μCi i.v. tail vein, 60 minutes post-injection), the “biodistribution, subcutaneous vs renal capsule PC3 tumor” value is “no major differences noticed between the two xenograft models”. The “radioactivity in the tumor” value in the data set on PC3 tumor (PC3-bearing mice, 300 μCi i.v. tail vein, 30, 60 and 90 minutes post-injection) was “up to 4 % id/gram”.

For `CC(C)(N)CNC(=O)C[C@H]1CC[C@]2(CC1)OO[C@]1(O2)C2CC3CC1CC(C(=O)NCCCNC(=O)c1ccc(F)cc1)(C3)C2` [B20[^18F], (1R,2r,3S,4″S,5S,5′s,7S)-4″-(2-((2-amino-2-methylpropyl)amino)-2-oxoethyl)-N-(3-(4-^18F-fluorobenzamido)propyl)dispiro[adamantane-2,3′-[1,2,4]trioxolane-5′,1′″-cyclohexane]-5-carboxamide], the “radioactivity in the tumor” value in the data set with PC3 tumor (PC3 tumor-bearing nude mice, 300 μCi i.v. tail vein, 60 and 90 minutes post-injection) is listed as “about 0.3 % id/gram”.

Take `Cc1ncc2n1-c1ccc(Cl)cc1C(c1ccccc1F)=NC2` [midazolam]: in data set [3], the “T1/2” value is 1.65 min. For the same compound, the CLint in data set [3] (mouse liver microsomes, CLint = Ln(2)*1000/T1/2/protein concentration) is 420 μL/min/mg of protein.

Regarding `C[C@]12CC[C@H]3[C@@H](CCC4=CC(=O)CC[C@@]43C)[C@@H]1CC[C@@H]2O` [testosterone], the “Solubility” value in data set [2] stood at 315 µM (≈ 90.9 µg/mL).
